Laboratory results from patent US20190127366A1 (LifeSci Pharmaceuticals, Inc., priority 2015, published 2019).

Molecular target: T1, human complement factor D (Homo sapiens, UniProt P00746)
T1 construct: purchased R&D Systems 1824-SE
Experiment: In vitro enzyme inhibition (Z-Lys-SBzl/DTNB absorbance assay)
Format: biochemical
Conditions: Complement Factor D (R&D Systems), substrate Z-Lys-SBzl, A405 nm; read-out: CFD IC50
Method in brief: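 Factor D (6.25 ng/μL before addition) preincubated 5 min RT with compound (8 points from 50 μM, 6-fold, 0.5% DMSO final) in 50 mM Tris/HCl pH 7.5, 1 M NaCl, then Z-Lys-SBzl/DTNB added (200 μM each before addition). A405 read kinetically every 30 s for 60 min; IC50 from variable-slope fit, controls with and without enzyme.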

T1 sequence (P00746 26-253): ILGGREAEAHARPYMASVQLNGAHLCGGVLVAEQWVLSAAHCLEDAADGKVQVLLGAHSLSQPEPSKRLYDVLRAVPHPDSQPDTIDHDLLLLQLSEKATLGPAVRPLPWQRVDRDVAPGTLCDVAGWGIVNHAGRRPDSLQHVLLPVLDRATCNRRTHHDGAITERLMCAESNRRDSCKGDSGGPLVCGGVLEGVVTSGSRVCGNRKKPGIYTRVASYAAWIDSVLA

Compound	IC50
NC(=O)c1nn(CC(=O)N2[C@@H]3CC[C@@H](C3)[C@H]2C(=O)Nc2cc(Cl)ccn2)c2ccccc12 [Example 51, 1-(2-((1R,3S,4S)-3-((4-chloropyridin-2-yl)carbamoyl)-2-azabicyclo[2.2.1]heptan-2-yl)-2-oxoethyl)-1H-indazole-3-carboxamide]	1000 to 10000 nM
Cc1cccc(NC(=O)[C@@H]2[C@H]3CC[C@H](C3)N2C(=O)Cn2nc(C(N)=O)c3ccccc32)n1 [Example 6, 1-(2-((1R,3S,4S)-3-((6-methylpyridin-2-yl)carbamoyl)-2-azabicyclo[2.2.1]heptan-2-yl)-2-oxoethyl)-1H-indazole-3-carboxamide]	1000 to 10000 nM
NC(=O)c1nn(CC(=O)N2[C@@H]3CC[C@@H](C3)[C@H]2C(=O)Nc2cc(CO)cc(Cl)n2)c2ccccc12 [Example 105, 1-(2-((1R,3S,4S)-3-((6-chloro-4-(hydroxymethyl)pyridin-2-yl)carbamoyl)-2-azabicyclo[2.2.1]heptan-2-yl)-2-oxoethyl)-1H-indazole-3-carboxamide]	100 to 1000 nM
NC(=O)c1nn(CC(=O)N2[C@H](C(=O)Nc3cccc(Br)n3)C[C@@H]3CCC[C@@H]32)c2ccccc12 [Example 164, 1-(2-((2S,3aS,6aS)-2-((6-bromopyridin-2-yl)carbamoyl)hexahydrocyclopenta[b]pyrrol-1(2H)-yl)-2-oxoethyl)-1H-indazole-3-carboxamide]	100 to 1000 nM
NC(=O)c1nn(CC(=O)N2CCOC[C@H]2C(=O)Nc2cccc(Cl)n2)c2ccccc12 [Example 22, (S)-4-(2-(3-carbamoyl-1H-indazol-1-yl)acetyl)-N-(6-chloropyridin-2-yl)morpholine-3-carboxamide]	1000 to 10000 nM
NC(=O)c1nn(CC(=O)N2CCNCCC2C(=O)NCc2cccc(Cl)c2F)c2ccccc12 (stereo not shown) [Example 35, 1-(2-(7-((3-chloro-2-fluorobenzyl)carbamoyl)-1,4-diazepan-1-yl)-2-oxoethyl)-1H-indazole-3-carboxamide 2,2,2-trifluoroacetate]	1000 to 10000 nM
NC(=O)c1nn(CC(=O)N2[C@@H]3CC[C@@H](C3)[C@H]2C(=O)Nc2cccc(Cl)n2)c2ccc(F)cc12 [Example 62, 1-(2-((1R,3S,4S)-3-((6-chloropyridin-2-yl)carbamoyl)-2-azabicyclo[2.2.1]heptan-2-yl)-2-oxoethyl)-5-fluoro-1H-indazole-3-carboxamide]	100 to 1000 nM
NC(=O)c1nn(CC(=O)N2[C@@H]3CC[C@@H](C3)[C@H]2C(=O)NCc2cccc(Cl)c2F)c2ccncc12 [Example 98, 1-(2-((1R,3S)-3-((3-chloro-2-fluorobenzyl)carbamoyl)-2-azabicyclo[2.2.1]heptan-2-yl)-2-oxoethyl)-1H-pyrazolo[4,3-c]pyridine-3-carboxamide]	1000 to 10000 nM
NC(=O)c1nn(CC(=O)N2[C@H]3CC[C@H](C3)[C@@H]2C(=O)Nc2cccc(Cl)n2)c2ccccc12 [Example 19, 1-(2-((1S,3R,4R)-3-((6-chloropyridin-2-yl)carbamoyl)-2-azabicyclo[2.2.1]heptan-2-yl)-2-oxoethyl)-1H-indazole-3-carboxamide]	100 to 1000 nM
NC(=O)c1nn(CC(=O)N2[C@H]3CC[C@H](CC3)[C@@H]2C(=O)Nc2cccc(Cl)c2F)c2ccccc12 [Example 149, (1S,3R,4S)-2-(2-(3-carbamoyl-1H-indazol-1-yl)acetyl)-N-(3-chloro-2-fluorophenyl)-2-azabicyclo[2.2,2]octane-3-carboxamide]	> 10000 nM
NC(=O)c1nn(CC(=O)N2[C@@H]3CC[C@@H](C3)[C@H]2C(=O)NCc2c(CO)ccc(Cl)c2F)c2ccccc12 [Example 120, 1-(2-((1R,3S,4S)-3-((3-chloro-2-fluoro-6-(hydroxymethyl)benzyl)carbamoyl)-2-azabicyclo[2.2.1]heptan-2-yl)-2-oxoethyl)-1H-indazole-3-carboxamide]	1000 to 10000 nM
NC(=O)c1ccc2c(c1)c(C(N)=O)nn2CC(=O)N1[C@@H]2CC[C@@H](C2)[C@H]1C(=O)Nc1cccc(Cl)n1 [Example 121, 1-(2-((1R,3S,4S)-3-((6-chloropyridin-2-yl)carbamoyl)-2-azabicyclo[2.2.1]heptan-2-yl)-2-oxoethyl)-1H-indazole-3,5-dicarboxamide]	100 to 1000 nM
O=C(NCCO)c1nn(CC(=O)N2[C@@H]3CC[C@@H](C3)[C@H]2C(=O)Nc2cccc(Cl)n2)c2ccccc12 [Example 89, 1-(2-((1R,3S,4S)-3-((6-chloropyridin-2-yl)carbamoyl)-2-azabicyclo[2.2.1]heptan-2-yl)-2-oxoethyl)-N-(2-hydroxyethyl)-1H-indazole-3-carboxamide]	1000 to 10000 nM
NC(=O)c1nn(CC(=O)N2[C@@H]3CC[C@@H](C3)[C@H]2C(=O)NCc2cccc(Cl)c2F)c2ccc(CCO)cc12 [Example 132]	1000 to 10000 nM
NC(=O)c1nn(CC(=O)N2[C@H](C(=O)NCc3cccc(Cl)c3F)C[C@@H]3CCC[C@@H]32)c2ccc(F)cc12 [Example 166, 1-(2-((2S,3aS,6aS)-2-((3-chloro-2-fluorobenzyl)carbamoyl)hexahydrocyclopenta[b]pyrrol-1(2H)-yl)-2-oxoethyl)-5-fluoro-1H-indazole-3-carboxamide]	100 to 1000 nM

Further lines, results first:

IC50	Compound
1000 to 10000 nM	NC(=O)c1nn(CC(=O)N2[C@@H]3CC[C@@H](C3)[C@H]2C(=O)NC(CCO)c2cccc(Cl)c2F)c2ccccc12 (stereo partly drawn) [Example 146, 1-(2-((1R,3S,4S)-3-((1-(3-chloro-2-fluorophenyl)-3-hydroxypropyl)carbamoyl)-2-azabicyclo[2.2.1]heptan-2-yl)-2-oxoethyl)-1H-indazole-3-carboxamide]
1000 to 10000 nM	CC(=O)c1nn(CC(=O)N2[C@H](C(=O)Nc3cccc(Cl)n3)C[C@@H]3CCC[C@@H]32)c2ccc(F)cc12 [Example 183, (2S,3aS,6aS)-1-(2-(3-acetyl-5-fluoro-1H-indazol-1-yl)acetyl)-N-(6-chloropyridin-2-yl)octahydrocyclopenta[b]pyrrole-2-carboxamide]
1000 to 10000 nM	NC(=O)c1nn(CC(=O)N2[C@@H]3CC[C@@H](C3)[C@H]2C(=O)Nc2ccnc(Cl)c2)c2ccccc12 [Example 57, 1-(2-((1R,3S,4S)-3-((2-chloropyridin-4-yl)carbamoyl)-2-azabicyclo[2.2.1]heptan-2-yl)-2-oxoethyl)-1H-indazole-3-carboxamide]
100 to 1000 nM	NC(=O)c1nn(CC(=O)N2[C@@H]3CC[C@@H](C3)[C@H]2C(=O)Nc2cccc(-c3ccccc3Cl)n2)c2ccccc12 [Example 44, 1-(2-((1R,3S,4S)-3-((6-(2-chlorophenyl)pyridin-2-yl)carbamoyl)-2-azabicyclo[2.2.1]heptan-2-yl)-2-oxoethyl)-1H-indazole-3-carboxamide]
100 to 1000 nM	N#Cc1ccc(Cl)nc1NC(=O)[C@@H]1[C@H]2CC[C@H](C2)N1C(=O)Cn1nc(C(N)=O)c2ccccc21 [Example 101, 1-(2-((1R,3S,4S)-3-((6-chloro-3-cyanopyridin-2-yl)carbamoyl)-2-azabicyclo[2.2.1]heptan-2-yl)-2-oxoethyl)-1H-indazole-3-carboxamide]
1000 to 10000 nM	NC(=O)Cc1ccc2c(c1)c(C(N)=O)nn2CC(=O)N1[C@@H]2CC[C@@H](C2)[C@H]1C(=O)NCc1cccc(Cl)c1F [Example 133, 5-(2-amino-2-oxoethyl)-1-(2-((1R,3S,4S)-3-((3-chloro-2-fluorobenzyl)carbamoyl)-2-azabicyclo[2.2.1]heptan-2-yl)-2-oxoethyl)-1H-indazole-3-carboxamide]
1000 to 10000 nM	NC(=O)c1nn(CC(=O)N2[C@@H]3CC[C@@H](C3)[C@H]2C(=O)NCc2cc(CO)cc(Cl)c2F)c2ccccc12 [Example 114, 1-(2-((1R,3S,4S)-3-((3-chloro-2-fluoro-5-(hydroxymethyl)benzyl)carbamoyl)-2-azabicyclo[2.2.1]heptan-2-yl)-2-oxoethyl)-1H-indazole-3-carboxamide]
100 to 1000 nM	NC(=O)c1ccc2c(C(N)=O)nn(CC(=O)N3[C@@H]4CC[C@@H](C4)[C@H]3C(=O)Nc3cccc(Cl)n3)c2c1 [Example 124, 1-(2-((1R,3S,4S)-3-((6-chloropyridin-2-yl)carbamoyl)-2-azabicyclo[2.2.1]heptan-2-yl)-2-oxoethyl)-1H-indazole-3,6-dicarboxamide]
> 10000 nM	NC(=O)c1nn(CC(=O)N2CCNC[C@H]2C(=O)Nc2cccc(Cl)n2)c2ccccc12 [Example 26, (S)-1-(2-(2-((6-chloropyridin-2-yl)carbamoyl)piperazin-1-yl)-2-oxoethyl)-1H-indazole-3-carboxamide]
1000 to 10000 nM	NC(=O)c1nn(CC(=O)N2[C@H]3CC[C@H](CC3)[C@@H]2C(=O)Nc2cccc(Cl)n2)c2ccccc12 [Example 155, (1S,3R,4S)-2-(2-(3-carbamoyl-1H-indazol-1-yl)acetyl)-N-(6-chloropyridin-2-yl)-2-azabicyclo[2.2.2]octane-3-carboxamide]
> 10000 nM	NC(=O)c1nn(CC(=O)N2CCCNCC2C(=O)NCc2cccc(Cl)c2F)c2ccccc12 (stereo not shown) [Example 33, 1-(2-(2-((3-chloro-2-fluorobenzyl)carbamoyl)-1,4-diazepan-1-yl)-2-oxoethyl)-1H-indazole-3-carboxamide]
100 to 1000 nM	NC(=O)c1nn(CC(=O)N2[C@@H]3CC[C@@H](C3)[C@H]2C(=O)NCc2cccc(Cl)c2Cl)c2ccccc12 [Example 70, 1-(2-((1R,3S,4S)-3-((2,3-dichlorobenzyl)carbamoyl)-2-azabicyclo[2.2.1]heptan-2-yl)-2-oxoethyl)-1H-indazole-3-carboxamide]
100 to 1000 nM	NC(=O)c1nn(CC(=O)N2[C@H](C(=O)Nc3cccc(Cl)n3)C[C@@H]3CCC[C@@H]32)c2ccc(C3CC3)cc12 [Example 162, 1-(2-((2S,3aS,6aS)-2-((6-chloropyridin-2-yl)carbamoyl)hexahydrocyclopenta[b]pyrrol-1(2H)-yl)-2-oxoethyl)-5-cyclopropyl-1H-indazole-3-carboxamide]
